28 compounds from BindingDB's records for doi:10.1074/jbc.M607913200 (Incyte, 2006) can be followed below.

Non-standard residues stand in square brackets, D forms with d. Residues, ends and D or L forms follow the SMILES beside them. F2Pmp = N[C@@H](Cc1ccc(C(F)(F)P(=O)(O)O)cc1)C(=O)O

For the first assay, the target named is T1, Tyrosine-protein phosphatase non-receptor type 1 [1-298] (Homo sapiens, UniProt P18031).
T1 construct: 1-298
T1 sequence (P18031 whole entry): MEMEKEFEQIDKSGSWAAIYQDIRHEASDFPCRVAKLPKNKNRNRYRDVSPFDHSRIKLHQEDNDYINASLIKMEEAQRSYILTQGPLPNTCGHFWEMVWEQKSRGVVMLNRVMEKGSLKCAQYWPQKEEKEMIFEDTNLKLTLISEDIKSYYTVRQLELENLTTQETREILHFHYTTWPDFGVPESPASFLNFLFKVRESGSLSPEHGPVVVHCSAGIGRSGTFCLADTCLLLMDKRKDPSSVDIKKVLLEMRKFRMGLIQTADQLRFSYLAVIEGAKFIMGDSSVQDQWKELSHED
The assay is described as follows: Phosphatase Inhibition Assay.
Conditions: not given
Turning to `Cc1ccc2nc(N[C@@H](Cc3ccc([C@@H]4CC(=O)NS4(=O)=O)cc3)c3nc4ccccc4[nH]3)sc2c1` [(5S)-5-{4-[(2S)-2-(1H-1,3-benzodiazol-2-yl)-2-[(6-methyl-1,3-benzothiazol-2-yl)amino]ethyl]phenyl}-1,2-thiazolidine-1,1,3-trione], the IC50 amounted to 1100 nM.
On the same count and under the same terms, in the case of `O=C1CC(c2ccc(C[C@H](NS(=O)(=O)c3ccccc3)c3nc4ccccc4[nH]3)cc2Br)S(=O)(=O)N1` (stereo partly drawn) [N-[(1S)-1-(1H-1,3-benzodiazol-2-yl)-2-[3-bromo-4-(1,1,3-trioxo-1,2-thiazolidin-5-yl)phenyl]ethyl]benzenesulfonamide] it was 170 nM; in that of `O=C1CC(c2ccc(C[C@H](NS(=O)(=O)c3ccccc3)c3nc4ccccc4[nH]3)cc2Cl)S(=O)(=O)N1` (stereo partly drawn) [N-[(1S)-1-(1H-1,3-benzodiazol-2-yl)-2-[3-chloro-4-(1,1,3-trioxo-1,2-thiazolidin-5-yl)phenyl]ethyl]benzenesulfonamide], 75 nM; in that of `N#Cc1cc(C[C@H](NS(=O)(=O)c2ccccc2)c2nc3ccccc3[nH]2)ccc1C1CC(=O)NS1(=O)=O` (stereo partly drawn) [N-[(1S)-1-(1H-1,3-benzodiazol-2-yl)-2-[3-cyano-4-(1,1,3-trioxo-1,2-thiazolidin-5-yl)phenyl]ethyl]benzenesulfonamide], 31 nM.
In turn, `C#Cc1cc(C[C@H](NS(=O)(=O)c2ccccc2)c2nc3ccccc3[nH]2)ccc1C1CC(=O)NS1(=O)=O` (stereo partly drawn) [N-[(1S)-1-(1H-1,3-benzodiazol-2-yl)-2-[3-ethynyl-4-(1,1,3-trioxo-1,2-thiazolidin-5-yl)phenyl]ethyl]benzenesulfonamide] returned a concentration for half-maximal inhibition (IC50) of 120 nM.
`O=C1CC(c2ccc(C[C@H](NS(=O)(=O)c3ccccc3)c3nc4ccccc4[nH]3)cc2F)S(=O)(=O)N1` (stereo partly drawn) [N-[(1S)-1-(1H-1,3-benzodiazol-2-yl)-2-[3-fluoro-4-(1,1,3-trioxo-1,2-thiazolidin-5-yl)phenyl]ethyl]benzenesulfonamide] gave an IC50 of 34 nM.
On the same count and under the same terms, in the case of `O=C1CC(c2ccc(C[C@H](NC(=O)C(F)(F)c3ccccc3)c3nc4ccccc4[nH]3)cc2)S(=O)(=O)N1` (stereo partly drawn) [N-[(1S)-1-(1H-1,3-benzodiazol-2-yl)-2-[4-(1,1,3-trioxo-1,2-thiazolidin-5-yl)phenyl]ethyl]-2,2-difluoro-2-phenylacetamide] it was 200 nM; in that of `CC(F)(F)C(=O)N[C@@H](Cc1ccc(C2CC(=O)NS2(=O)=O)cc1)c1nc2ccccc2[nH]1` (stereo partly drawn) [N-[(1S)-1-(1H-1,3-benzodiazol-2-yl)-2-[4-(1,1,3-trioxo-1,2-thiazolidin-5-yl)phenyl]ethyl]-2,2-difluoropropanamide], 300 nM; in that of `O=C1CC(c2ccc(C[C@H](NS(=O)(=O)c3cc(C(F)(F)F)ccc3C(F)(F)F)c3nc4ccccc4[nH]3)cc2)S(=O)(=O)N1` (stereo partly drawn) [N-[(1S)-1-(1H-1,3-benzodiazol-2-yl)-2-[4-(1,1,3-trioxo-1,2-thiazolidin-5-yl)phenyl]ethyl]-2,5-bis(trifluoromethyl)benzene-1-sulfonamide], 210 nM.
In turn, `O=C1CC(c2ccc(C[C@H](NS(=O)(=O)c3ccc(C(F)(F)F)cc3Br)c3nc4ccccc4[nH]3)cc2)S(=O)(=O)N1` (stereo partly drawn) [N-[(1S)-1-(1H-1,3-benzodiazol-2-yl)-2-[4-(1,1,3-trioxo-1,2-thiazolidin-5-yl)phenyl]ethyl]-2-bromo-4-(trifluoromethyl)benzene-1-sulfonamide] had an IC50 of 170 nM.
`O=C1CC(c2ccc(C[C@H](NS(=O)(=O)c3ccccc3Cl)c3nc4ccccc4[nH]3)cc2)S(=O)(=O)N1` (stereo partly drawn) [N-[(1S)-1-(1H-1,3-benzodiazol-2-yl)-2-[4-(1,1,3-trioxo-1,2-thiazolidin-5-yl)phenyl]ethyl]-2-chlorobenzene-1-sulfonamide] displayed an IC50 of 160 nM.
Consider `Cc1ccccc1S(=O)(=O)N[C@@H](Cc1ccc(C2CC(=O)NS2(=O)=O)cc1)c1nc2ccccc2[nH]1` (stereo partly drawn) [N-[(1S)-1-(1H-1,3-benzodiazol-2-yl)-2-[4-(1,1,3-trioxo-1,2-thiazolidin-5-yl)phenyl]ethyl]-2-methylbenzene-1-sulfonamide], for which the midpoint of inhibition, the IC50, lay at 300 nM.
Still for that read-out and setting: in the case of `CC(C)C(=O)N[C@@H](Cc1ccc(C2CC(=O)NS2(=O)=O)cc1)c1nc2ccccc2[nH]1` (stereo partly drawn) [N-[(1S)-1-(1H-1,3-benzodiazol-2-yl)-2-[4-(1,1,3-trioxo-1,2-thiazolidin-5-yl)phenyl]ethyl]-2-methylpropanamide] it was 3200 nM; in that of `O=C1CC(c2ccc(C[C@H](NS(=O)(=O)c3cc(Cl)cc(Cl)c3)c3nc4ccccc4[nH]3)cc2)S(=O)(=O)N1` (stereo partly drawn) [N-[(1S)-1-(1H-1,3-benzodiazol-2-yl)-2-[4-(1,1,3-trioxo-1,2-thiazolidin-5-yl)phenyl]ethyl]-3,5-dichlorobenzene-1-sulfonamide], 51 nM; in that of `O=C1CC(c2ccc(C[C@H](NS(=O)(=O)c3cccc(Oc4ccc(C(F)(F)F)cc4)c3)c3nc4ccccc4[nH]3)cc2)S(=O)(=O)N1` (stereo partly drawn) [N-[(1S)-1-(1H-1,3-benzodiazol-2-yl)-2-[4-(1,1,3-trioxo-1,2-thiazolidin-5-yl)phenyl]ethyl]-3-[4-(trifluoromethyl)phenoxy]benzene-1-sulfonamide], 220 nM.
The same measure, in the same setting: the same measure for `O=C1CC(c2ccc(C[C@H](NS(=O)(=O)c3cccc(F)c3)c3nc4ccccc4[nH]3)cc2)S(=O)(=O)N1` (stereo partly drawn) [N-[(1S)-1-(1H-1,3-benzodiazol-2-yl)-2-[4-(1,1,3-trioxo-1,2-thiazolidin-5-yl)phenyl]ethyl]-3-fluorobenzene-1-sulfonamide]: 66 nM.
The same measure, in the same setting: the same measure for `Cc1cc(S(=O)(=O)N[C@@H](Cc2ccc(C3CC(=O)NS3(=O)=O)cc2)c2nc3ccccc3[nH]2)ccc1-c1ccccc1` (stereo partly drawn) [N-[(1S)-1-(1H-1,3-benzodiazol-2-yl)-2-[4-(1,1,3-trioxo-1,2-thiazolidin-5-yl)phenyl]ethyl]-3-methyl-4-phenylbenzene-1-sulfonamide]: 90 nM; for `O=C1CC(c2ccc(C[C@H](NS(=O)(=O)c3cccc(Oc4ccccc4)c3)c3nc4ccccc4[nH]3)cc2)S(=O)(=O)N1` (stereo partly drawn) [N-[(1S)-1-(1H-1,3-benzodiazol-2-yl)-2-[4-(1,1,3-trioxo-1,2-thiazolidin-5-yl)phenyl]ethyl]-3-phenoxybenzene-1-sulfonamide]: 110 nM; for `O=C(CCc1ccccc1)N[C@@H](Cc1ccc(C2CC(=O)NS2(=O)=O)cc1)c1nc2ccccc2[nH]1` (stereo partly drawn) [N-[(1S)-1-(1H-1,3-benzodiazol-2-yl)-2-[4-(1,1,3-trioxo-1,2-thiazolidin-5-yl)phenyl]ethyl]-3-phenylpropanamide]: 600 nM.
Regarding `CC(C)c1ccc(S(=O)(=O)N[C@@H](Cc2ccc(C3CC(=O)NS3(=O)=O)cc2)c2nc3ccccc3[nH]2)cc1` (stereo partly drawn) [N-[(1S)-1-(1H-1,3-benzodiazol-2-yl)-2-[4-(1,1,3-trioxo-1,2-thiazolidin-5-yl)phenyl]ethyl]-4-(propan-2-yl)benzene-1-sulfonamide], inhibition was half-maximal at 100 nM (IC50).
Still for that read-out and setting: in the case of `O=C1CC(c2ccc(C[C@H](NS(=O)(=O)c3ccc(Oc4ccncc4)cc3)c3nc4ccccc4[nH]3)cc2)S(=O)(=O)N1` (stereo partly drawn) [N-[(1S)-1-(1H-1,3-benzodiazol-2-yl)-2-[4-(1,1,3-trioxo-1,2-thiazolidin-5-yl)phenyl]ethyl]-4-(pyridin-4-yloxy)benzene-1-sulfonamide] it was 120 nM; in that of `O=C1CC(c2ccc(C[C@H](NS(=O)(=O)c3ccc(Br)c(C(F)(F)F)c3)c3nc4ccccc4[nH]3)cc2)S(=O)(=O)N1` (stereo partly drawn) [N-[(1S)-1-(1H-1,3-benzodiazol-2-yl)-2-[4-(1,1,3-trioxo-1,2-thiazolidin-5-yl)phenyl]ethyl]-4-bromo-3-(trifluoromethyl)benzene-1-sulfonamide], 40 nM.

The assay is the same for the next values; noted with them: pH 7; 22 °C.
In turn, `NC(=O)[C@H](Cc1ccccc1)NC(=O)[C@@H](NC(=O)Cc1ccc(C(F)(F)P(=O)(O)O)cc1)C(=O)O` [(2R)-2-{[(1S)-1-carbamoyl-2-phenylethyl]carbamoyl}-2-(1-{4-[difluoro(phosphono)methyl]phenyl}acetamido)acetic acid] gave a half-maximal inhibitory concentration (IC50) of 33000 nM.
Turning to `NC(=O)[C@H](Cc1ccc(C(F)(F)P(=O)(O)O)cc1)NC(=O)[C@@H](NC(=O)Cc1ccc(C(F)(F)P(=O)(O)O)cc1)C(=O)O` [(2R)-2-{[(1S)-1-carbamoyl-2-{4-[difluoro(phosphono)methyl]phenyl}ethyl]carbamoyl}-2-(1-{4-[difluoro(phosphono)methyl]phenyl}acetamido)acetic acid], inhibition was half-maximal at 0.4 nM (IC50).
Still for that read-out and setting: the same measure for `O=C1C[C@@H](c2ccc(C[C@H](Nc3nc4c(F)cc(Cl)cc4s3)c3nc4ccccc4[nH]3)cc2)S(=O)(=O)N1` [(5S)-5-{4-[(2S)-2-(1H-1,3-benzodiazol-2-yl)-2-[(6-chloro-4-fluoro-1,3-benzothiazol-2-yl)amino]ethyl]phenyl}-1,2-thiazolidine-1,1,3-trione]: 1800 nM.
The same measure, in the same setting: the same measure for `NC(=O)[C@H](Cc1ccc(C(F)(F)P(=O)(O)O)cc1)NC(=O)CNC(=O)Cc1ccc(C(F)(F)P(=O)(O)O)cc1` [({4-[(2S)-2-carbamoyl-2-[2-(1-{4-[difluoro(phosphono)methyl]phenyl}acetamido)acetamido]ethyl]phenyl}difluoromethyl)phosphonic acid]: 42 nM.
On the same count and under the same terms, the same measure for `NC(=O)[C@H](Cc1ccc(C(F)(F)P(=O)(O)O)cc1)NC(=O)[C@H](Cc1ccccc1)NC(=O)Cc1ccc(C(F)(F)P(=O)(O)O)cc1` [({4-[(2S)-2-carbamoyl-2-[(2S)-2-(1-{4-[difluoro(phosphono)methyl]phenyl}acetamido)-3-phenylpropanamido]ethyl]phenyl}difluoromethyl)phosphonic acid]: 1.7 nM; for `CC(=O)N[C@@H](Cc1ccccc1)C(=O)N[C@@H](Cc1ccc(C(F)(F)P(=O)(O)O)cc1)C(N)=O` [DFMP 5] (Ac-Phe-[F2Pmp]-NH2): 1700 nM.

The IC50 is the concentration that inhibits the measured activity by half.
